According to ChEMBL document CHEMBL4828772, “Imidazo[1,2-b]pyridazines as IL-17A Inhibitors for Treating Psoriasis, Rheumatoid Arthritis, and Multiple Sclerosis” (ACS Med Chem Lett, 2021):

Experiment: Inhibition of C-terminal Avi/His-tagged IL-17A (1 to 155 residues) (unknown origin) expressed in baculovirus infected insect cells binding with FLAG-tagged/Thrombin cleavage site fused IL-17RA (1 to317 residues) N206D/N256D mutant (unknown origin) expressed in baculovirus infected insect cells measured after 2 hrs by AlphaLISA method
Design: species or system Homo sapiens

SMILES | IC50 [nM]
O=C(N[C@H](c1cn2ncc(CN3C[C@@H](C(F)(F)F)NC3=O)cc2n1)C1CCC(F)(F)CC1)c1nonc1C(F)(F)F | < 9.45
COC[C@H](c1cnn2cc([C@@H](NC(=O)c3nonc3C(F)F)C3CCC(F)(F)CC3)nc2c1)N1C[C@@H](C(F)(F)F)NC1=O | < 9.45
COC[C@H](c1cnn2cc([C@@H](NC(=O)c3nonc3C(F)(F)F)C3CCC(F)(F)CC3)nc2c1)N1C[C@@H](C(F)(F)F)NC1=O | < 9.45
O=C(N[C@H](c1cn2ncc(CN3C[C@@H](C(F)(F)F)NC3=O)cc2n1)C1CCC(F)(F)CC1)c1nonc1C1CC1 | < 9.45
COC[C@H](c1cnn2cc([C@@H](NC(=O)c3conc3C3CC3)C3CCC(F)(F)CC3)nc2c1)N1C[C@@H](C(F)(F)F)NC1=O | < 9.45
CC(C)c1nonc1C(=O)N[C@H](c1cn2ncc(CN3C[C@@H](C(F)(F)F)NC3=O)cc2n1)C1CCC(F)(F)CC1 | < 9.45
